Read-outs that look alike come from different tables or passages of the source.
Columns and labels:
[1] = molecular target: T1, 5α-reductase type 1 isozyme (Rattus norvegicus, UniProt P24008); test: Enzyme inhibition test, 5α-reductase type 1 (pH 6.6); format: biochemical
T1 sequence (P24008 1-259): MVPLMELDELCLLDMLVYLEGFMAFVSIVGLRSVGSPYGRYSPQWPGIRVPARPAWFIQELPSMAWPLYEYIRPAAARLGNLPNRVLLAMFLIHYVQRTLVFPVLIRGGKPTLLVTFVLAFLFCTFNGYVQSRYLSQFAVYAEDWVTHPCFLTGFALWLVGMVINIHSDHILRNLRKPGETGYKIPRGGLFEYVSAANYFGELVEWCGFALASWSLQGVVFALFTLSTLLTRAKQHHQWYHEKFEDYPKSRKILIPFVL
Protocol: (§1) Female rats were sacrificed and liver were taken within 5 min. All the following steps were performed at 0–4 °C. 1 g liver was cut into 3 mm pieces and added to 3 times volume of PBS. The tissue was homogenized and centrifuged at 10,000 g for 30 min. The supernatant was collected and centrifuged repeatedly at 100,000 for 1 h. The pellet obtained was resuspended in phosphate buffer (contained 30% glycerol, 1:3 v/v) and stored at −70 °C. The incubation mixture contained 50 µL enzyme solution, 6 µL NADPH (80 µM), 6 µL T (20 µM), and 108 µL buffer with or without test compound. The negative control contained 50 µL enzyme solution, 6 µL NADPH (80 µM) and 114 µL buffer. The incubation was carried out for 30 min at 37 °C. The fluorescence decay rate was tested in 10 min at 37 °C.
(§2) The inhibitory activities of the synthesized compounds were then assessed towards the 5α-reductase 1 and 2 isozymes, respectively. Finasteride was used as positive control.

[2] = molecular target: T2, 5α-reductase type 2 isozyme (Rattus norvegicus, UniProt P31214); test: Enzyme inhibition test, 5α-reductase type 2 (pH 5.5); format: biochemical
T2 sequence (P31214 1-254): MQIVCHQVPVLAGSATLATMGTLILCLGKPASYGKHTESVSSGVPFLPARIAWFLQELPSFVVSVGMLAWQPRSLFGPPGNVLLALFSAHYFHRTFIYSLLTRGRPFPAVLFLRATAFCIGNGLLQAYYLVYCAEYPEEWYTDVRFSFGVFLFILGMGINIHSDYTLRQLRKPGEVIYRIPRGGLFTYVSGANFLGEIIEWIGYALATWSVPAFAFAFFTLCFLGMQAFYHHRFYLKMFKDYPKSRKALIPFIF
Protocol: as §1, §2

22RV1 cells = test: MTT anti-proliferation assay, T-stimulated 22RV1; format: cell-based, Human; conditions: for Effect on cell viability of T-treated 22RV1 cells: different concentrations of compound with 0.1 μM T, Figure 3
Protocol: Human prostate carcinoma 22RV1 (CRL-2505, ATCC) and PC-3 (CRL-1435, ATCC) cells were cultured in RPMI-1640 medium (Invitrogen), supplemented with 10% (v/v) foetal calf serum (FCS) (Invitrogen), 1% (v/v), penicillin and streptomycin (Invitrogen) at 37 °C with 5% CO2 in a humidified atmosphere. Fresh medium was given every second day and on the day before the experiments were done. Cells were passaged at preconfluent densities, using a solution containing 0.05% trypsin.
The anti-cancer activity in vitro was measured using the MTT assay. Exponentially growing cells were harvested and plated in 96-well plates at a concentration of 1 × 10^4 cells/well. After 24 h incubation at 37 °C under a humidified 5% CO2 to allow cell attachment, the cells in the wells were respectively treated with target compounds at various concentrations for 48 h. […] A solution of 3–(4,5-dimethylthizao1-2-y1)-2,5-diphenyltetrazolium bromide (MTT), was prepared at 5 mg/ml in phosphate buffered saline (PBS: 1.5 mM KH2PO4, 6.5 mM Na2HPO4, 137 mM NaCl, 2.7 mM KCl; pH 7.4). Of this solution 20 µl was added to each well. After incubation for 4 h at 37 °C in a humidified incubator with 5% CO2, the medium/MTT mixtures were removed, and the formazan crystals formed by the mitochondrial dehydrogenase activity of vital cells were dissolved in 100 µl of DMSO per well. The absorbance of the wells was read with a microplate reader at 570 nm. Effects of the drug cell viability were calculated using cell treated with DMSO as control.
The anti-proliferative activities were firstly evaluated against 22RV1 stimulated by 0.1 µM T or not. […] Although androst[3,2-c]pyrazoleis common in anabolic steroid, luckily these derivatives shown no androgen agonistic activity. The phenethylamino substituted compounds (7d, 8d, and 9d) and piperidine substituted compounds (7b, 8b, and 9b) were more efficient than others. […] As presented in Figure 3, 0.1 µm of T was selectedas the most adequate to induce proliferation of 22RV1 cells. […] Compound 9d caused a much more significant decrease in cell viability for all concentrations than flutamide. […]

[3] = 1 μM compound, pH 6.6, rat liver enzyme preparation, read-out: Type 1 (pH 6.6) Inh% (1 μM)
[4] = 1 μM compound, pH 5.5, rat liver enzyme preparation, read-out: Type 2 (pH 5.5) Inh% (1μM)
[5] = pH 6.6, read-out: Type 1 (pH 6.6) Inh% (1 μM)
[6] = pH 5.5, read-out: Type 2 (pH 5.5) Inh% (1μM)
[7] = pH 6.6, rat liver enzyme preparation, read-out: Type 1 (pH 6.6) IC50

| SMILES | inhibition at 1 µM [1, 3] [%] | inhibition at 1 µM [2, 4] [%] | melting point [°C] | further results |
| --- | --- | --- | --- | --- |
| CC(C)CNC(=O)[C@H]1CCC2C3CCC4=CC(=O)/C(=C\O)C[C@]4(C)C3CC[C@@]21C (stereo partly drawn) [Compound 7a, 2-hydroxymethylene-17β-(N-isobutyl-carboxamide)-androst-4-ene-3-one] | 25 ± 9.68 | 24.2 ± 1.13 | 152 to 158 |  |
| C[C@]12CC[C@H]3[C@@H](CCC4=CC(=O)C(=CO)C[C@@]43C)[C@@H]1CC[C@@H]2C(=O)N1CCCCC1 [Compound 7b, 2-hydroxymethylene-17β-(piperidine-1-carbonyl)-androst-4-ene-3-one] | 52.2 ± 12.3 | 49.9 ± 3.08 | 105 to 110 |  |
| CCN(CC)C(=O)[C@H]1CCC2C3CCC4=CC(=O)/C(=C\O)C[C@]4(C)C3CC[C@@]21C (stereo partly drawn) [Compound 7c, 2-hydroxymethylene-17β-(N,N-diethy-carboxamide)-androst-4-ene-3-one] | 27.9 ± 4.01 | 24.5 ± 8.47 | 153 to 159 |  |
| COc1ccc(CCNC(=O)[C@H]2CCC3C4CCC5=CC(=O)/C(=C\O)C[C@]5(C)C4CC[C@@]32C)cc1OC (stereo partly drawn) [Compound 7d, 2-hydroxymethylene-17β-(N-(3,4-dimethoxyphenethyl)-carboxamide)-androst-4-ene-3-one] |  |  | 121 to 129 | IC50 [1]: 580 ± 60 nM; inhibition at 1 µM [1, 5]: 66.4 ± 4.37%; inhibition at 1 µM [2, 6]: 69 ± 9.3% |
| C[C@]12CC[C@H]3[C@@H](CCC4=CC(=O)C(=CO)C[C@@]43C)[C@@H]1CC[C@@H]2C(=O)NC1CC1 [Compound 7e, 2-hydroxymethylene-17β-(N-cyclopropylamino-carbonyl)-androst-4-ene-3-one] | 54.7 ± 5.94 | 45.8 ± 9.86 | 125 to 130 |  |
| C=C1C[C@@]2(C)C(=CC1=O)CCC1C2CC[C@@]2(C)C1CC[C@@H]2C(=O)NCC(C)C (stereo partly drawn) [Compound 8a, 2-methylene-17β-(N-isobutyl-carboxamide)-androst-4-ene-3-one] | 31.1 ± 6.49 | 19.9 ± 12.9 | 168 to 175 |  |
| C=C1C[C@@]2(C)C(=CC1=O)CC[C@H]1[C@@H]3CC[C@H](C(=O)N4CCCCC4)[C@@]3(C)CC[C@@H]12 [Compound 8b, 2-methylene-17β-(piperidine-1-carbonyl)-androst-4-ene-3-one] | 35.8 ± 9.58 | 21.2 ± 1.31 |  |  |
| C=C1C[C@@]2(C)C(=CC1=O)CCC1C2CC[C@@]2(C)C1CC[C@@H]2C(=O)N(CC)CC (stereo partly drawn) [Compound 8c, 2-methylene-17β-(N,N-diethy-carboxamide)-androst-4-ene-3-one] | 25.8 ± 4.22 | 18.3 ± 4.61 | 98 to 105 |  |
| C=C1C[C@@]2(C)C(=CC1=O)CCC1C2CC[C@@]2(C)C1CC[C@@H]2C(=O)NCCc1ccc(OC)c(OC)c1 (stereo partly drawn) [Compound 8d, 2-methylene-17β-(N-(3,4-dimethoxyphenethyl)-carboxamide)-androst-4-ene-3-one] | 24.8 ± 9.02 | 26.1 ± 10.3 | 74 to 78 |  |
| C=C1C[C@@]2(C)C(=CC1=O)CC[C@H]1[C@@H]3CC[C@H](C(=O)NC4CC4)[C@@]3(C)CC[C@@H]12 [Compound 8e, 2-methylene-17β-(N-cyclopropylamino-carbonyl)-androst-4-ene-3-one] | 34.1 ± 10.1 | 20.9 ± 10.1 | 135 to 142 |  |
| CC(C)CNC(=O)[C@H]1CCC2C3CCC4=Cc5n[nH]cc5C[C@]4(C)C3CC[C@@]21C (stereo partly drawn) [Compound 9a, 17β-(N-isobutyl-carboxamide)-androst[3,2-c]pyrazole-4-ene] | 53.1 ± 9.71 | 48.7 ± 3.08 |  |  |
| C[C@]12Cc3c[nH]nc3C=C1CCC1C2CC[C@@]2(C)C1CC[C@@H]2C(=O)N1CCCCC1 (stereo partly drawn) [Compound 9b, 17β-(Piperidine-1-carbonyl)-androst[3,2-c]pyrazole-4-ene] | 59.2 ± 2.28 | 49.6 ± 5.75 |  | IC50 [1, 7]: 630 ± 140 nM |
| CCN(CC)C(=O)[C@H]1CCC2C3CCC4=Cc5n[nH]cc5C[C@]4(C)C3CC[C@@]21C (stereo partly drawn) [Compound 9c, 17β-(N,N-diethy-carboxamide)-androst[3,2-c]pyrazole-4-ene] | 68 ± 12 | 63.6 ± 12.5 | 111 to 118 | IC50 [1, 7]: 520 ± 60 nM |
| COc1ccc(CCNC(=O)[C@H]2CCC3C4CCC5=Cc6n[nH]cc6C[C@]5(C)C4CC[C@@]32C)cc1OC (stereo partly drawn) [Compound 9d, 17β-(N-(3,4-dimethoxyphenethyl)-carboxamide)-androst[3,2-c]pyrazole-4-ene] |  |  |  | IC50 (22RV1 cells; Homo sapiens, 22Rv1, 48 h, read-out: IC50 anti-proliferative activity against 22RV1, T-stimulated group): 8850 nM; Effect on cell viability of T-treated 22RV1 cells (22RV1 cells): inhibited cell proliferation in a dose-dependent manner; IC50 [1]: 90 ± 20 nM; inhibition at 1 µM [1, 5]: 80.1 ± 6.73%; inhibition at 1 µM [2, 6]: 71.9 ± 3.4% |
| C[C@]12Cc3c[nH]nc3C=C1CCC1C2CC[C@@]2(C)C1CC[C@@H]2C(=O)NC1CC1 (stereo partly drawn) [Compound 9e, 17β-(N-cyclopropylamino-carbonyl)-androst[3,2-c]pyrazole-4-ene] |  |  |  | IC50 [1]: 230 ± 90 nM; inhibition at 1 µM [1, 5]: 70.8 ± 9.74%; inhibition at 1 µM [2, 6]: 79.4 ± 2.47% |
| CC(C)(C)NC(=O)[C@H]1CC[C@H]2[C@@H]3CC[C@H]4NC(=O)C=C[C@]4(C)[C@H]3CC[C@]12C [Finasteride, finasteride, reference compound] | 73.7 ± 4.22 |  |  | inhibition at 1 µM [2, 6]: 70 ± 4.12% |
| CC(C)C(=O)Nc1ccc([N+](=O)[O-])c(C(F)(F)F)c1 [flutamide, reference compound] |  |  |  | Effect on cell viability of T-treated 22RV1 cells (22RV1 cells): inhibited cell proliferation in a dose-dependent manner |
